Reference: patent US8758816B2, “Compositions comprising azelastine and methods of use thereof” (priority 2004, dated 2014)
Counter-ions that a name gives are not always drawn.

Tested on: patients with seasonal allergic rhinitis (SAR)
Assay: MP 428 study: individual symptom severity scores (runny nose, itchy nose, sneezing, congestion; 0-3 scale)
Type: in vivo, human
Details: Intent-to-Treat Population
Experimental: A two-week, randomized, double-blind study, which evaluated the effects of the co-administration of ASTELIN® (azelastine hydrochloride (HCl)) and FLONASE® (fluticasone propionate) compared to either product alone in patients with seasonal allergic rhinitis (SAR) was conducted during the 2006 Texas mountain cedar season. After a 5-day placebo lead-in period, 151 patients with moderate-to-severe allergic rhinitis symptoms were randomized to either: (1) (49 total patients) ASTELIN® (azelastine hydrochloride (HCl)) plus placebo saline nasal spray 2 sprays per nostril, 15 minutes apart, twice daily (AM & PM); (2) (50 total patients) FLONASE® (fluticasone propionate) plus placebo saline nasal spray, 2 sprays per nostril, 15 minutes apart, once daily (AM) and two sessions of placebo saline nasal spray, 2 sprays per nostril, 15 minutes apart (PM); or (3) (52 total patients) the co-administration of ASTELIN® (azelastine hydrochloride (HCl)) 2 sprays per nostril plus FLONASE® (fluticasone propionate) 2 sprays per nostril (AM), 15 minutes apart, and ASTELIN® (azelastine hydrochloride (HCl)) 2 sprays per nostril plus placebo saline nasal spray, 15 minutes apart, (PM) for a 2-week double-blind treatment period.
The primary efficacy variable was the change from baseline in the Total Nasal Symptom Score (TNSS), which comprised sneezing, itchy nose, runny nose, and nasal congestion (individual symptoms scores were assigned a value between 0 and 3, where 0=no symptoms and 3=severe symptoms). This study was not statistically designed to assess the differences between ASTELIN® and FLONASE®.
The results of the clinical trial are summarized and presented in Appendix A hereinbelow and in FIGS. 1-6. […] FIGS. 2-5 show the mean improvement in severity score (0-3 scale) from baseline for the symptoms of runny nose, itchy nose, sneezing and congestion, respectively.

## CN1CCCC(n2nc(Cc3ccc(Cl)cc3)c3ccccc3c2=O)CC1 (racemic) [Azelastine, (±)-1-(2H)-phthalazinone, 4-[(4-chlorophenyl)methyl]-2-(hexahydro-1-methyl-1H-azepin-4-yl)-, mono-hydrochloride]
Day 2
  Change from Baseline in AM and PM Combined Nasal Symptom Score: Congestion, LS Mean: −0.73
  Change from Baseline in AM and PM Combined Nasal Symptom Score: Congestion, Mean: −0.78
  Change from Baseline in AM and PM Combined Nasal Symptom Score: Congestion, Median: −0.17
  Change from Baseline in AM and PM Combined Nasal Symptom Score: Itchy Nose, LS Mean: −0.58
  Change from Baseline in AM and PM Combined Nasal Symptom Score: Itchy Nose, Mean: −0.61
  Change from Baseline in AM and PM Combined Nasal Symptom Score: Itchy Nose, Median: −0.50
  Change from Baseline in AM and PM Combined Nasal Symptom Score: Runny Nose, LS Mean: −0.70
  Change from Baseline in AM and PM Combined Nasal Symptom Score: Runny Nose, Mean: −0.72
  Change from Baseline in AM and PM Combined Nasal Symptom Score: Runny Nose, Median: −0.42
  Change from Baseline in AM and PM Combined Nasal Symptom Score: Sneezing, LS Mean: −1.09
  Change from Baseline in AM and PM Combined Nasal Symptom Score: Sneezing, Mean: −1.11
  Change from Baseline in AM and PM Combined Nasal Symptom Score: Sneezing, Median: −0.90
  Percent Change from Baseline in AM and PM Combined Nasal Symptom Score: Congestion, LS Mean: −13.19%
  Percent Change from Baseline in AM and PM Combined Nasal Symptom Score: Congestion, Mean: −14.05%
  Percent Change from Baseline in AM and PM Combined Nasal Symptom Score: Congestion, Median: −3.23%
  Percent Change from Baseline in AM and PM Combined Nasal Symptom Score: Itchy Nose, LS Mean: −13.14%
  Percent Change from Baseline in AM and PM Combined Nasal Symptom Score: Itchy Nose, Mean: −13.55%
  Percent Change from Baseline in AM and PM Combined Nasal Symptom Score: Itchy Nose, Median: −11.11%
  Percent Change from Baseline in AM and PM Combined Nasal Symptom Score: Runny Nose, LS Mean: −13.68%
  Percent Change from Baseline in AM and PM Combined Nasal Symptom Score: Runny Nose, Mean: −14.08%
  Percent Change from Baseline in AM and PM Combined Nasal Symptom Score: Runny Nose, Median: −7.98%
  Percent Change from Baseline in AM and PM Combined Nasal Symptom Score: Sneezing, LS Mean: −26.72%
  Percent Change from Baseline in AM and PM Combined Nasal Symptom Score: Sneezing, Mean: −26.94%
  Percent Change from Baseline in AM and PM Combined Nasal Symptom Score: Sneezing, Median: −21.05%
Day 3
  Change from Baseline in AM and PM Combined Nasal Symptom Score: Congestion, LS Mean: −0.62
  Change from Baseline in AM and PM Combined Nasal Symptom Score: Congestion, Mean: −0.68
  Change from Baseline in AM and PM Combined Nasal Symptom Score: Congestion, Median: 0.00
  Change from Baseline in AM and PM Combined Nasal Symptom Score: Itchy Nose, LS Mean: −0.85
  Change from Baseline in AM and PM Combined Nasal Symptom Score: Itchy Nose, Mean: −0.84
  Change from Baseline in AM and PM Combined Nasal Symptom Score: Itchy Nose, Median: −0.75
  Change from Baseline in AM and PM Combined Nasal Symptom Score: Runny Nose, LS Mean: −0.74
  Change from Baseline in AM and PM Combined Nasal Symptom Score: Runny Nose, Mean: −0.79
  Change from Baseline in AM and PM Combined Nasal Symptom Score: Runny Nose, Median: −1.00
  Change from Baseline in AM and PM Combined Nasal Symptom Score: Sneezing, LS Mean: −0.99
  Change from Baseline in AM and PM Combined Nasal Symptom Score: Sneezing, Mean: −0.97
  Change from Baseline in AM and PM Combined Nasal Symptom Score: Sneezing, Median: −0.77
  Percent Change from Baseline in AM and PM Combined Nasal Symptom Score: Congestion, LS Mean: −10.71%
  Percent Change from Baseline in AM and PM Combined Nasal Symptom Score: Congestion, Mean: −11.70%
  Percent Change from Baseline in AM and PM Combined Nasal Symptom Score: Congestion, Median: 0.00%
  Percent Change from Baseline in AM and PM Combined Nasal Symptom Score: Itchy Nose, LS Mean: −19.04%
  Percent Change from Baseline in AM and PM Combined Nasal Symptom Score: Itchy Nose, Mean: −18.60%
  Percent Change from Baseline in AM and PM Combined Nasal Symptom Score: Itchy Nose, Median: −16.67%
  Percent Change from Baseline in AM and PM Combined Nasal Symptom Score: Runny Nose, LS Mean: −13.72%
  Percent Change from Baseline in AM and PM Combined Nasal Symptom Score: Runny Nose, Mean: −14.69%
  Percent Change from Baseline in AM and PM Combined Nasal Symptom Score: Runny Nose, Median: −16.67%
  Percent Change from Baseline in AM and PM Combined Nasal Symptom Score: Sneezing, LS Mean: −23.56%
  Percent Change from Baseline in AM and PM Combined Nasal Symptom Score: Sneezing, Mean: −22.81%
  Percent Change from Baseline in AM and PM Combined Nasal Symptom Score: Sneezing, Median: −16.08%
Day 4
  Change from Baseline in AM and PM Combined Nasal Symptom Score: Congestion, LS Mean: −0.78
  Change from Baseline in AM and PM Combined Nasal Symptom Score: Congestion, Mean: −0.82
  Change from Baseline in AM and PM Combined Nasal Symptom Score: Congestion, Median: −0.92
  Change from Baseline in AM and PM Combined Nasal Symptom Score: Itchy Nose, LS Mean: −1.01
  Change from Baseline in AM and PM Combined Nasal Symptom Score: Itchy Nose, Mean: −1.00
  Change from Baseline in AM and PM Combined Nasal Symptom Score: Itchy Nose, Median: −0.73
  Change from Baseline in AM and PM Combined Nasal Symptom Score: Runny Nose, LS Mean: −0.76
  Change from Baseline in AM and PM Combined Nasal Symptom Score: Runny Nose, Mean: −0.79
  Change from Baseline in AM and PM Combined Nasal Symptom Score: Runny Nose, Median: −0.43
  Change from Baseline in AM and PM Combined Nasal Symptom Score: Sneezing, LS Mean: −1.34
  Change from Baseline in AM and PM Combined Nasal Symptom Score: Sneezing, Mean: −1.32
  Change from Baseline in AM and PM Combined Nasal Symptom Score: Sneezing, Median: −1.00
  Percent Change from Baseline in AM and PM Combined Nasal Symptom Score: Congestion, LS Mean: −13.79%
  Percent Change from Baseline in AM and PM Combined Nasal Symptom Score: Congestion, Mean: −14.44%
  Percent Change from Baseline in AM and PM Combined Nasal Symptom Score: Congestion, Median: −16.67%
  Percent Change from Baseline in AM and PM Combined Nasal Symptom Score: Itchy Nose, LS Mean: −22.54%
  Percent Change from Baseline in AM and PM Combined Nasal Symptom Score: Itchy Nose, Mean: −22.23%
  Percent Change from Baseline in AM and PM Combined Nasal Symptom Score: Itchy Nose, Median: −13.79%
  Percent Change from Baseline in AM and PM Combined Nasal Symptom Score: Runny Nose, LS Mean: −15.76%
  Percent Change from Baseline in AM and PM Combined Nasal Symptom Score: Runny Nose, Mean: −16.23%
  Percent Change from Baseline in AM and PM Combined Nasal Symptom Score: Runny Nose, Median: −7.98%
  Percent Change from Baseline in AM and PM Combined Nasal Symptom Score: Sneezing, LS Mean: −32.76%
  Percent Change from Baseline in AM and PM Combined Nasal Symptom Score: Sneezing, Mean: −31.90%
  Percent Change from Baseline in AM and PM Combined Nasal Symptom Score: Sneezing, Median: −25.00%
Day 5
  Change from Baseline in AM and PM Combined Nasal Symptom Score: Congestion, LS Mean: −1.02
  Change from Baseline in AM and PM Combined Nasal Symptom Score: Congestion, Mean: −1.07
  Change from Baseline in AM and PM Combined Nasal Symptom Score: Congestion, Median: −0.90
  Change from Baseline in AM and PM Combined Nasal Symptom Score: Itchy Nose, LS Mean: −1.11
  Change from Baseline in AM and PM Combined Nasal Symptom Score: Itchy Nose, Mean: −1.10
  Change from Baseline in AM and PM Combined Nasal Symptom Score: Itchy Nose, Median: −0.75
  Change from Baseline in AM and PM Combined Nasal Symptom Score: Runny Nose, LS Mean: −0.96
  Change from Baseline in AM and PM Combined Nasal Symptom Score: Runny Nose, Mean: −0.97
  Change from Baseline in AM and PM Combined Nasal Symptom Score: Runny Nose, Median: −0.67
  Change from Baseline in AM and PM Combined Nasal Symptom Score: Sneezing, LS Mean: −1.36
  Change from Baseline in AM and PM Combined Nasal Symptom Score: Sneezing, Mean: −1.34
  Change from Baseline in AM and PM Combined Nasal Symptom Score: Sneezing, Median: −1.03
